Measured values published in publication PMC8692984 (Frontiers in Pharmacology, 2021).
Where “and” joins values, the source holds several entries; their conditions need not be identical. Identical values can stand only once. Bridge positions count the residues as written; N and C are the ends. Peptide text beside a SMILES is read from it.

Experiments:
α7 nAChRs [1] = biological target: T1, α7 nAChRs (Homo sapiens, UniProt P36544)
α7 nAChRs [2] = biological target: T1, α7 nAChRs; remark: listed apart in the source
Ls-AChBP = Ls-AChBP (Lymnaea stagnalis, UniProt P58154); experiment: biochemical; settings: SEM
Sequence of Ls-AChBP (P58154 20-229 limits assumed): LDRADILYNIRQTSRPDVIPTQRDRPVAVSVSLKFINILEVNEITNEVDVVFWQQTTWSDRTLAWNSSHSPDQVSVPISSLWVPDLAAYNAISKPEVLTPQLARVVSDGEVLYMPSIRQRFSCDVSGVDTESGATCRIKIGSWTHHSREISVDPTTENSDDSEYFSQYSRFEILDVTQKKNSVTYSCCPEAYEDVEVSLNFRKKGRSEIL

T1 sequence (P36544 23-502): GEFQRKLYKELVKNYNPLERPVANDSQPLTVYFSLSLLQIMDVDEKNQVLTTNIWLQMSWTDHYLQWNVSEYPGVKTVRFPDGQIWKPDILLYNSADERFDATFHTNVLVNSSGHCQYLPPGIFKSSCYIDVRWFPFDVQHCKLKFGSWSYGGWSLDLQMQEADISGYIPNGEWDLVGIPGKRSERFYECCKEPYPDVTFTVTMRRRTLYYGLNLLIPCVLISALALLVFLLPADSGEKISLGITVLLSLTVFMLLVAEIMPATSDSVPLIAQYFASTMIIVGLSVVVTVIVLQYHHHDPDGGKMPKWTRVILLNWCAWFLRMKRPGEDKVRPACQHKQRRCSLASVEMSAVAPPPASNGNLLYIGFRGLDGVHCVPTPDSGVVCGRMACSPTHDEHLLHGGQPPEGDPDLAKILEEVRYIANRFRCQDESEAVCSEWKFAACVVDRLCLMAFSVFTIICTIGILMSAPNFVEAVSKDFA

Row | Structure (SMILES) | extent of inhibition of α7 nAChR responses to choline (α7 nAChRs [1]) [%] | residual response at TQS-α7 nAChRs (α7 nAChRs [2]) [%] | IC50 (Ls-AChBP) [nM] | also measured
1 | CC[C@H](C)[C@@H]1NC(=O)[C@H](Cc2c[nH]cn2)NC(=O)[C@@H]2CCCN2C(=O)[C@H](CC(N)=O)NC(=O)[C@H](CC(N)=O)NC(=O)[C@H](C(C)C)NC(=O)[C@H](CC(N)=O)NC(=O)[C@@H]2CSSC[C@H](NC(=O)CN)C(=O)N[C@@H](CSSC[C@@H](C(=O)NCC(N)=O)NC1=O)C(=O)N[C@@H](CO)C(=O)N[C@@H](Cc1c[nH]cn1)C(=O)N1CCC[C@H]1C(=O)N[C@@H](C)C(=O)N2 [OmIA] (H-GCCSHPACNVNNPHICG-NH2; disulfide 2-8, 3-16) | ~50 | ~15 |  | 
2 | CC[C@H](C)[C@@H]1NC(=O)[C@H](Cc2cnc[nH]2)NC(=O)[C@@H]2CCCN2C(=O)[C@H](CC(N)=O)NC(=O)[C@H](CC(N)=O)NC(=O)[C@H](C(C)C)NC(=O)[C@H](CC(N)=O)NC(=O)[C@@H]2CSSC[C@H](NC(=O)CN)C(=O)N[C@@H](CSSC[C@@H](C(=O)NCC(N)=O)NC1=O)C(=O)N[C@@H](CO)C(=O)N[C@@H](Cc1cnc[nH]1)C(=O)N1CCC[C@H]1C(=O)N[C@@H](C)C(=O)N2 [OmIA] (H-GCCSHPACNVNNPHICG-NH2; disulfide 2-8, 3-16) |  |  | 280 ± 70 | 
3 | CC[C@H](C)[C@@H]1NC(=O)[C@H](Cc2c[nH]cn2)NC(=O)[C@@H]2CCCN2C(=O)[C@H](CC(N)=O)NC(=O)[C@H](CC(N)=O)NC(=O)[C@H](C(C)C)NC(=O)[C@H](Cc2c[nH]cn2)NC(=O)[C@@H]2CSSC[C@H](NC(=O)CN)C(=O)N[C@@H](CSSC[C@@H](C(=O)NCC(N)=O)NC1=O)C(=O)N[C@@H](CO)C(=O)N[C@@H](Cc1c[nH]cn1)C(=O)N1CCC[C@H]1C(=O)N[C@@H](C)C(=O)N2 [[N9H]OmIA] (H-GCCSHPACHVNNPHICG-NH2; disulfide 2-8, 3-16) | ~50 | ~15 | 730 ± 50 | 
4 | CC[C@H](C)[C@@H]1NC(=O)[C@H](Cc2c[nH]cn2)NC(=O)[C@@H]2CCCN2C(=O)[C@H](CC(N)=O)NC(=O)[C@H](CC(N)=O)NC(=O)[C@H](C)NC(=O)[C@H](CC(N)=O)NC(=O)[C@@H]2CSSC[C@H](NC(=O)CN)C(=O)N[C@@H](CSSC[C@@H](C(=O)NCC(N)=O)NC1=O)C(=O)N[C@@H](CO)C(=O)N[C@@H](Cc1c[nH]cn1)C(=O)N1CCC[C@H]1C(=O)N[C@@H](C)C(=O)N2 [[V10A]OmIA] (H-GCCSHPACNANNPHICG-NH2; disulfide 2-8, 3-16) |  |  |  | Choline EC50 ± SEM at PNU120596-α7 nAChRs in the presence of peptide (α7 nAChRs [1]): 7 ± 1.20 and 8 ± 0.47 and 11 ± 1.20; mode of antagonism at PNU120596-α7 nAChRs (α7 nAChRs [1]): fully insurmountable antagonism; Fraction 2 ± SEM at PNU120596-modified α7 nAChRs (α7 nAChRs [1]; SEM): 0.58 ± 0.04 and 0.57 ± 0.11 and 0.37 ± 0.04; Choline EC50 ± SEM at TQS-α7 nAChRs in the presence of peptide (α7 nAChRs [2]): 3 ± 0.20 and 4 ± 1.00 and 5 ± 0.48
5 | CC[C@H](C)[C@@H]1NC(=O)[C@H](Cc2c[nH]cn2)NC(=O)[C@@H]2CCCN2C(=O)[C@H](CC(N)=O)NC(=O)[C@H](CC(N)=O)NC(=O)[C@H](CC(C)C)NC(=O)[C@H](CC(N)=O)NC(=O)[C@@H]2CSSC[C@H](NC(=O)CN)C(=O)N[C@@H](CSSC[C@@H](C(=O)NCC(N)=O)NC1=O)C(=O)N[C@@H](CO)C(=O)N[C@@H](Cc1c[nH]cn1)C(=O)N1CCC[C@H]1C(=O)N[C@@H](C)C(=O)N2 [[V10L]OmIA] (H-GCCSHPACNLNNPHICG-NH2; disulfide 2-8, 3-16) |  |  | 680 ± 130 | increase of OmIA IC50 at TQS-α7 nAChRs (α7 nAChRs [2]): 10 fold
6 | CC[C@H](C)[C@@H]1NC(=O)[C@H](Cc2c[nH]cn2)NC(=O)[C@@H]2CCCN2C(=O)[C@H](CC(N)=O)NC(=O)[C@H](CC(N)=O)NC(=O)[C@H]([C@@H](C)O)NC(=O)[C@H](CC(N)=O)NC(=O)[C@@H]2CSSC[C@H](NC(=O)CN)C(=O)N[C@@H](CSSC[C@@H](C(=O)NCC(N)=O)NC1=O)C(=O)N[C@@H](CO)C(=O)N[C@@H](Cc1c[nH]cn1)C(=O)N1CCC[C@H]1C(=O)N[C@@H](C)C(=O)N2 [[V10T]OmIA] (H-GCCSHPACNTNNPHICG-NH2; disulfide 2-8, 3-16) |  |  | 1000 ± 50 | residual response at PNU120596-α7 nAChRs (α7 nAChRs [1]): 60%
